Measurements: patent publication US8795632B2, “Disease animal model for chronic pain” (Astellas Pharma Inc., priority 2008, dated 2014)

How the values were obtained:
[1] = test system: reserpine repeated administration-induced muscle pressure pain threshold value reduction; test: Effects of drugs on reserpine repeated administration-induced reduction of muscle pressure pain threshold value; type: in vivo, rat; conditions: for effect on reserpine repeated administration-induced muscle pressure pain threshold value reduction / dose at which the effect was statistically significant by the index of muscle pressure pain threshold value: male rats, pregabalin, duloxetine, diclofenac oral, pramipexole subcutaneous; for effect on reserpine repeated administration-induced muscle pressure pain threshold value reduction: 5 days after final reserpine (1 mg/kg s.c. x 3 days), 30-240 min after drug; for dose at which the effect was statistically significant by the index of muscle pressure pain threshold value: 5 days after final reserpine, two-way analysis of variance and Bonferroni; for efficacy on this disease animal model (reserpine-treated mammal): summary statement, chronic muscle pain and tactile allodynia model
Protocol: Male Sprague-Dawley rats (Japan SLC, Hamamatsu, Japan) were used as the animal. A total of 30 rats were used for each drug. As shown in Example 1, 1 mg/kg of reserpine was repeatedly administered subcutaneously on the back of 24 rats once a day for 3 days to induce reduction of the muscle pressure pain threshold value and skin pain sensation threshold value. The other 6 rats were subjected to the test as a healthy control group without carrying out the reserpine treatment.
All of the evaluations of drug effects were carried out 5 days after the final administration of reserpine.
On the day of drug effect evaluation (5 days after the final administration of reserpine), the muscle pressure pain threshold value and skin pain sensation threshold value were firstly measured on all of the rats (24 reserpine-treated rats and 6 healthy rats). The 24 reserpine-treated rats were divided into 4 groups based on the doses of the test drug, and the muscle pressure pain threshold value and skin pain sensation threshold value were measured after 30, 60, 120 or 240 minutes of the drug or solvent administration. On the 6 healthy rats, the drug administration was not carried out, but only the measurement of muscle pressure pain threshold value and skin pain sensation threshold value was carried out.
All of the measured values were expressed as average value±standard error. Statistical significance test of the measured values between the test drug administration groups and the solvent administration group at each point of time was carried out by a two-way analysis of variance and the Bonferroni method. Probability value (P) of less than 5% was judged as statistically significant (P<0.05 was expressed as * in the graphs).

[2] = test system: reserpine repeated administration-induced skin pain sensation threshold value reduction; test: Effects of drugs on reserpine repeated administration-induced reduction of skin pain sensation threshold value; type: in vivo, rat; conditions: male rats, pregabalin, diclofenac oral, pramipexole subcutaneous; for effect on reserpine repeated administration-induced skin pain sensation threshold value reduction: 5 days after final reserpine (1 mg/kg s.c. x 3 days), 30-240 min after drug, duloxetine; for dose at which the effect was statistically significant by the index of skin pain sensation threshold value: 5 days after final reserpine, two-way analysis of variance and Bonferroni
fibromyalgia patients = conditions: cited from earlier work; for pain symptom score of fibromyalgia patients in comparison with the placebo group: Non-patent References 7 to 9; for effect in the treatment of fibromyalgia patients (clinical trial): literature clinical trials

| Structure (SMILES) | effect on reserpine repeated administration-induced muscle pressure pain threshold value reduction [1] | dose at which the effect was statistically significant by the index of muscle pressure pain threshold value [1] [mg/kg] | efficacy on this disease animal model (reserpine-treated mammal) [1] | effect on reserpine repeated administration-induced skin pain sensation threshold value reduction [2] | dose at which the effect was statistically significant by the index of skin pain sensation threshold value [2] [mg/kg] | pain symptom score of fibromyalgia patients in comparison with the placebo group (fibromyalgia patients) | effect in the treatment of fibromyalgia patients (clinical trial) (fibromyalgia patients) |
| --- | --- | --- | --- | --- | --- | --- | --- |
| O=C(O)Cc1ccccc1Nc1c(Cl)cccc1Cl [diclofenac] | did not recover | > 10 | not effective | did not recover | > 10 |  |  |
| CNCC[C@H](Oc1cccc2ccccc12)c1cccs1 [duloxetine] | statistically significantly recovered | 30 | effective | showed a tendency to recover the reserpine repeated administration-induced skin pain sensation pain threshold value reduction but was not statistically significant |  | alleviates the pain symptom score of fibromyalgia patients statistically significantly | usefulness has been proved |
| CC(C)Cc1ccc(C(C)C(=O)O)cc1 (stereo not shown) [ibuprofen] |  |  |  |  |  |  | do not have a significant effect |
| COc1ccc2cc([C@H](C)C(=O)O)ccc2c1 [naproxen] |  |  |  |  |  |  | do not have a significant effect |
| CC(C)C[C@H](CN)CC(=O)O [pregabalin] | dose-dependently recovered |  | effective | dose-dependently recovered | 30 | alleviates the pain symptom score of fibromyalgia patients statistically significantly | usefulness has been proved |
